Reference: PMC10165945 (Journal of medicinal chemistry, 2013)
“Also recorded” adds a separate entry of the source.

What was measured:
recombinant human IDE [1] = molecular target: T1, recombinant human IDE (Homo sapiens, UniProt P14735); experiment: IDE activity assay, degradation of fluorogenic peptide substrate FRET1; type: biochemical; details: for activity against IDE in words: FRET1 assay; for Ki: n = 3
[2] = system: neprilysin (NEP), endothelin-converting enzyme-1 (ECE1), ACE, and MMP-2 and -7; experiment: Zinc-metalloprotease selectivity panel versus IDE, common substrate OmniMMP; type: biochemical
recombinant human IDE [3] = molecular target: T1, recombinant human IDE; details: cited from earlier work
recombinant human IDE [4] = molecular target: T1, recombinant human IDE; details: cited from earlier work; remark: listed apart in the source
recombinant human IDE [5] = molecular target: T1, recombinant human IDE; details: cited from earlier work; remark: listed apart in the source
MMP7 = molecular target: T2, MMP7 (Homo sapiens, UniProt P09237); experiment: Zinc-metalloprotease selectivity dose-response, common substrate OmniMMP: MMP7; type: biochemical; details: Figure 3 dose-response curves
T2 sequence (P09237 95-267): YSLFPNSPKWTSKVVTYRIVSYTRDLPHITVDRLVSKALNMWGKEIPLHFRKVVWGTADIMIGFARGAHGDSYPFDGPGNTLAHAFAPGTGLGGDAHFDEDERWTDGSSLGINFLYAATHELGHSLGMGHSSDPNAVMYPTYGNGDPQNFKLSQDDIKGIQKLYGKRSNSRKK

recombinant human IDE [6] = molecular target: T1, recombinant human IDE; experiment: IDE activity assay, insulin degradation; type: biochemical
recombinant human IDE [7] = molecular target: T1, recombinant human IDE; experiment: IDE activity assay, Aß degradation; type: biochemical

T1 sequence (P14735 whole entry): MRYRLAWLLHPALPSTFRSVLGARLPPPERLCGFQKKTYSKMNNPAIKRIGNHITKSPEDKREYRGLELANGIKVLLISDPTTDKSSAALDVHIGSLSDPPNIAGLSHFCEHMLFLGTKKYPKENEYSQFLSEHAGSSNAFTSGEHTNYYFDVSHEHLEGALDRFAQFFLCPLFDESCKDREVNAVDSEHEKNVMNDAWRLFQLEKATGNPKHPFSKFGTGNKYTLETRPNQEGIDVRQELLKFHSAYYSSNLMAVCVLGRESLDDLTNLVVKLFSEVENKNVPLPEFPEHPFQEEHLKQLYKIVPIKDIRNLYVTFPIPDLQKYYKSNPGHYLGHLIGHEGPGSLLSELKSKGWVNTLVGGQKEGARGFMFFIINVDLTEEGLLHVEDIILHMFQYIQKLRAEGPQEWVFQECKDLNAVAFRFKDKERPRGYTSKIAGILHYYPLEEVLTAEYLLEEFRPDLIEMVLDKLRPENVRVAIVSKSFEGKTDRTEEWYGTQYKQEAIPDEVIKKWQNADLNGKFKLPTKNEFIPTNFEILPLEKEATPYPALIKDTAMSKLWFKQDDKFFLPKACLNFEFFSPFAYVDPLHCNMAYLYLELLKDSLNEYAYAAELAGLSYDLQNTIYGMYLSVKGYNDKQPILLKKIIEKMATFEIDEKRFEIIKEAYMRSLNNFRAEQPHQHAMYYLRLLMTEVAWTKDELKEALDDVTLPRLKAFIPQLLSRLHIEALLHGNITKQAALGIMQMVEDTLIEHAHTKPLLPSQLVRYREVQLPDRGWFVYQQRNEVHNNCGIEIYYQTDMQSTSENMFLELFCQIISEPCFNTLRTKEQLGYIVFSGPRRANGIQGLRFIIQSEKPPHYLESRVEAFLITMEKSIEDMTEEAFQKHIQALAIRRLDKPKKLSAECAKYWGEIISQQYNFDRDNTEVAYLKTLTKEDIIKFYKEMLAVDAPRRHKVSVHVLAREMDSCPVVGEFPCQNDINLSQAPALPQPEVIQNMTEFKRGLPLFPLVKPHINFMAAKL

## N=C(N)NCCC[C@H](NC(=O)C(CC(=O)NO)Cc1ccc2ccccc2c1)C(N)=O (stereo in doubt) [inhibitor 9b, (R)-N^1-((S)-1-amino-5-guanidino-1-oxopentan-2-yl)-N^4-hydroxy-2-(naphthalen-2-ylmethyl)succinamide]
Recombinant human IDE [1]
  activity against IDE in words: inactive

## C=CCOC(=O)[C@H](CCCNC(=N)N)NC(=O)C(CC(=O)NO)Cc1ccc2ccccc2c1 (stereo in doubt) [inhibitor 14a, (S)-Allyl5-guanidino-2-((S)-4-(hydroxyamino)-2-(naphthalen-2-ylmethyl)-4-oxobutanamido)pentanoate]
[2]; OmniMMP substrate
  fold more potent against IDE vis-à-vis the other proteases tested: > 100 fold
Recombinant human IDE [1]; ki, FRET1
  fold more potent than the parent amide, 9a: ~ 13 fold

## Nc1ncnc2c1ncn2[C@@H]1O[C@H](COP(=O)(O)OP(=O)(O)OP(=O)(O)O)[C@@H](O)[C@H]1O [ATP]
Recombinant human IDE [3]
  effect on degradation of Aß by IDE: inhibits
Recombinant human IDE [4]
  effect on degradation of FRET1 by IDE: profoundly activates
Recombinant human IDE [5]
  effect on degradation of insulin by IDE: inhibits

## N=C(N)NCCC[C@H](NC(=O)[C@@H](CC(=O)NO)Cc1ccc2ccccc2c1)C(=O)N[C@@H](Cc1c[nH]c2ccccc12)C(=O)N[C@@H](CCC(=O)O)C(N)=O [inhibitor 1a]
MMP7
  MMP7 inhibition in words: rather potently inhibited

## N=C(N)NCCC[C@@H](NC(=O)[C@@H](Cc1c[nH]c2ccccc12)NC(=O)[C@H](N)CCC(=O)O)C(=O)N[C@@H](CC(=O)NO)Cc1ccc2ccccc2c1 [inhibitor 15, Glu-Trp-Arg-2Nap-Hx]
Recombinant human IDE [6]; derived from Table 5
  fold higher ki^app for insulin degradation relative to FRET1: > 60 fold

## CC(=O)N[C@H](CCC(=O)NCCNc1cccc2c(S(=O)(=O)O)cccc12)C(=O)N[C@H](Cc1ccc(O)cc1)C(=O)N[C@H](Cc1ccc(C(=O)c2ccccc2)cc1)C(=O)N[C@@H](CC(=O)NO)Cc1ccc2ccccc2c1 [inhibitor 17, Ac-Glu(EDANS)-Tyr-Bpa-2Nap-Hx]
Recombinant human IDE [7]; derived from Table 5
  fold lower ki^app for Aß degradation relative to insulin degradation: ~ 300 fold
  fold lower ki^app for Aß degradation relative to ki for FRET1 degradation: > 30 fold

## (2R,3S)-N^1-((S)-1-Amino-5-guanidino-1-oxopentan-2-yl)-N^4,3-dihydroxy-2-(naphthalen-2-ylmethyl)succinamide [inhibitor 12a]
Recombinant human IDE [1]
  activity against IDE in words: abolish activity; also recorded: substantial decreases in potency

## (2S,3R)-N^1-((S)-1-amino-5-guanidino-1-oxopentan-2-yl)-N^4,3-dihydroxy-2-(naphthalen-2-ylmethyl)succinamide [inhibitor 12b]
Recombinant human IDE [1]
  activity against IDE in words: abolish activity; also recorded: substantial decreases in potency

## (S)-5-Amino-4-((S)-2-((S)-5-guanidino-2-((2S,3R)-3-hydroxy-4-(hydroxyamino)-2-(naphthalen-2-ylmethyl)-4-oxobutanamido)pentanamido)-3-(1H-indol-2-yl)propanamido)-5-oxopentanoic acid [inhibitor 8b]
[2]; concentrations up to 10 μM
  inhibition of the other proteases tested, in words: no or only partial inhibition
Recombinant human IDE [7]; read-out: ki^app, nM FAßB, Table 5, substrate Aß 200 nM, n = 3
  Ki: 927 ± 120 nM
Recombinant human IDE [6]; read-out: ki^app, nM Insulin, Table 5, substrate insulin 2 nM, n = 3
  Ki: 1890 ± 410 nM
Recombinant human IDE [1]; read-out: ki (nM) (FRET1), Table 1, FRET1 5 μM, 22 °C
  Ki: 103 ± 6.9 nM
Recombinant human IDE [1]; read-out: ki, nM (FRET1), Table 2, truncation, FRET1 5 μM
  Ki: 103 ± 7 nM
Recombinant human IDE [1]; read-out: ki^app, nM FRET1, Table 5, substrate FRET1 5 μM
  Ki: 103 ± 7 nM
